Reference: PMC11284802 (Journal of Medicinal Chemistry, 2024)

Key:
[1] = Human liver microsomal CLint; type: in vitro ADME; details: liver microsomes
[2] = Mouse liver microsomal stability; type: in vitro ADME; details: male, CD-1, mouse, liver microsomes, pH 7.4
[3] = Human hepatocyte stability; type: in vitro ADME; details: cryopreserved hepatocytes
[4] = Mouse hepatocyte stability; type: in vitro ADME; details: male, CD-1, mouse, cryopreserved hepatocytes
[5] = target: T1, DYRK1A (Homo sapiens, UniProt Q13627); experiment: NanoBRET dose-response, off-target kinase; type: cell-based; details: poor assay window
[6] = target: CLK4 (Homo sapiens, UniProt Q9HAZ1); experiment: NanoBRET K192 panel; type: cell-based; details: read-out: NanoBRET K192 % occupancy at 10 μM, CLK4
[7] = test system: phosphorylation of CSNK2 substrate EIF2S2; experiment: Inhibition of EIF2S2 phosphorylation in vitro; type: cell-based, human; details: A549-ACE2 cells, 1 or 5 μM, 24 h
[8] = target: T2, HIPK4 (Homo sapiens, UniProt Q8NE63); experiment: NanoBRET K192 panel; type: cell-based; details: read-out: NanoBRET K192 % occupancy at 10 μM, HIPK4
T2 sequence (Q8NE63 1-616): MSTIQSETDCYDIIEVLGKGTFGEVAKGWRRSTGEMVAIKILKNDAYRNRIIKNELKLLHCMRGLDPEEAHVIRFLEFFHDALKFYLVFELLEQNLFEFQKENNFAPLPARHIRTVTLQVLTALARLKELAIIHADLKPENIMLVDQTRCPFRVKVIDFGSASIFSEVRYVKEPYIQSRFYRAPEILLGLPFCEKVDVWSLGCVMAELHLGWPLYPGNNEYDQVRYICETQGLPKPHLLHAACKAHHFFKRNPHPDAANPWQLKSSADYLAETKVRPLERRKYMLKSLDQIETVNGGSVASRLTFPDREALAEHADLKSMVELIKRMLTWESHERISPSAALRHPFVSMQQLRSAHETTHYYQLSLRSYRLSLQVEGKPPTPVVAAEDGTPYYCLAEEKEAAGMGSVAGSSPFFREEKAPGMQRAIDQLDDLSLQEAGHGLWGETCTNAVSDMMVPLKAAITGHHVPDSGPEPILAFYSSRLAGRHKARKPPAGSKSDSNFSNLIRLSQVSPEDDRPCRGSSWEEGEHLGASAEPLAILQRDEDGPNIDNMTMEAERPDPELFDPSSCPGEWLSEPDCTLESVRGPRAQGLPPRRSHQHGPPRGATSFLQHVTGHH

[9] = test system: EIF2S2 (phospho-Ser2); experiment: In vivo CSNK2 inhibition; parameters: species or system CD-1 mice; details: 10 mg/kg i.p. b.i.d., 36 h, vs vehicle
[10] = target: PHKG1 (Homo sapiens, UniProt Q16816); experiment: NanoBRET K192 panel; type: cell-based; details: read-out: NanoBRET K192 % occupancy at 10 μM, PHKG1
[11] = test system: A549-ACE2 cells; experiment: LDH cytotoxicity assay; type: cell-based, human; details: concentrations below 10 μM
[12] = test system: AKT (phospho-Ser129); experiment: In vivo CSNK2 inhibition; parameters: species or system CD-1 mice; details: 10 mg/kg i.p. b.i.d., 36 h, vs vehicle
[13] = Plasma stability; type: in vitro ADME; details: human plasma, 37 °C, 0 and 6 h
[14] = target: DAPK2 (Homo sapiens, UniProt Q9UIK4); experiment: NanoBRET K192 panel; type: cell-based; details: read-out: NanoBRET K192 % occupancy at 10 μM, DAPK2
[15] = target: T1, DYRK1A; experiment: NanoBRET K192 panel; type: cell-based; details: read-out: NanoBRET K192 % occupancy at 10 μM, DYRK1A
[16] = test system: mouse hepatitis virus (MHV); experiment: MHV assay; type: cell-based

Chain of CLK4 (Q9HAZ1 whole entry): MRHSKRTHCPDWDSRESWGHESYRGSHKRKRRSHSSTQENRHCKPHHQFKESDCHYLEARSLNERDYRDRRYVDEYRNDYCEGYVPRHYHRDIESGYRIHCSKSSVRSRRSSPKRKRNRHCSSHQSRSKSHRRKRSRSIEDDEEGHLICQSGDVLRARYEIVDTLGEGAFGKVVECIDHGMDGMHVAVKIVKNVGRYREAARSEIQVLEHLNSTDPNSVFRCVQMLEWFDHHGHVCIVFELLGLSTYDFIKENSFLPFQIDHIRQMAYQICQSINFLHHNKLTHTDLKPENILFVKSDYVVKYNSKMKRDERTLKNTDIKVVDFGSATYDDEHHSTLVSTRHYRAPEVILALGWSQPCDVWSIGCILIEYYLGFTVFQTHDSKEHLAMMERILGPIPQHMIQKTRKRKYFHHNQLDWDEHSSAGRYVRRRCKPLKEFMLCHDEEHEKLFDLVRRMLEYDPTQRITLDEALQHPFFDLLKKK
Chain of PHKG1 (Q16816 whole entry): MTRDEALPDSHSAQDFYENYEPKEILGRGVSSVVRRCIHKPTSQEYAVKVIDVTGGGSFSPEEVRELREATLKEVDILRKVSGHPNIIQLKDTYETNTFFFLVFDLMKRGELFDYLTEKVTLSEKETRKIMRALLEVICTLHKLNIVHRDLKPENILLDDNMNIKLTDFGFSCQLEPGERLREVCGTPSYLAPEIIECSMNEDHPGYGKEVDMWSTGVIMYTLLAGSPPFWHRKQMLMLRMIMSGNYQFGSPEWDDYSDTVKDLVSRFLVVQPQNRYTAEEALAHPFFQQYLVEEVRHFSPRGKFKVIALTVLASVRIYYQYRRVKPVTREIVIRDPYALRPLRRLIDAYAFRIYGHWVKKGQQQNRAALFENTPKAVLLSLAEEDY
Chain of DAPK2 (Q9UIK4 whole entry): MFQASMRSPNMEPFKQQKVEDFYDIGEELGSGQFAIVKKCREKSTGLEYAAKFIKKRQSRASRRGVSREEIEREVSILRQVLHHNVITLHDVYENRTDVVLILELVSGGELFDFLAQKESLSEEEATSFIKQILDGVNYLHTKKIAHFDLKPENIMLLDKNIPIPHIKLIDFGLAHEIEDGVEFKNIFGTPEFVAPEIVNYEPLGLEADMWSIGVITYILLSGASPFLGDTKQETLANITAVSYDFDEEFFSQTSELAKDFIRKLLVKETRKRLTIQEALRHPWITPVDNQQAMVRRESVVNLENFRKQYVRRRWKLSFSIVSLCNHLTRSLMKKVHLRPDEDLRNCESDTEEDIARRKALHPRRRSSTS

`CC(=O)Nc1cccc(Nc2cc(NC3CC3)n3ncc(C#N)c3n2)c1` [Compound 3, N-(3-((3-Cyano-7-(cyclopropylamino)pyrazolo[1,5-a]pyrimidin-5-yl)amino)phenyl)acetamide] showed a CLint scaled at 1 h [1] of 25 mL/min/kg, a remaining at 0.5 h, 5 μM [2] of 22% and a CLint scaled at 2 h, 1 µM [3] of 58 mL/min/kg. It also gave a CLint scaled at 2 h, 1 µM [4] of 520 mL/min/kg.
`N#Cc1cnn2c(NC3CC3)cc(Nc3cccc(-n4cnnc4)c3)nc12` [Compound 14, 5-((3-(4H-1,2,4-Triazol-4-yl)phenyl)amino)-7-(cyclopropylamino)pyrazolo[1,5-a]pyrimidine-3-carbonitrile] gave a CLint scaled at 1 h [1] of 7.6 mL/min/kg, a remaining at 0.5 h, 5 μM [2] of 74% and a CLint scaled at 2 h, 1 µM [3] of 16 mL/min/kg. The CLint scaled at 2 h, 1 µM [4] was 160 mL/min/kg.
With `CCN(CCN)c1ccc(Nc2cc(NC3CC3)n3ncc(C#N)c3n2)cc1-n1cnnc1` [Compound 53, 5-((4-((2-Aminoethyl)(ethyl)amino)-3-(4H-1,2,4-triazol-4-yl)phenyl)amino)-7-(cyclopropylamino)pyrazolo[1,5-a]pyrimidine-3-carbonitrile] the “DYRK1A NanoBRET dose-response occupancy” value [5] was “d Poor assay window observed but no occupancy observed up to 3 μM. n.d. = not determined”, the receptor occupancy at 10 µM [6] was 50 to 75% and the “phosphorylation levels of CSNK2 substrate EIF2S2” value [7] was “reduction in phosphorylation levels”. The receptor occupancy at 10 µM [8] was 50 to 75%, the “phosphorylation of Ser2 of EIF2S2 in mouse lung” value [9] was “no statistically significant reduction” and the receptor occupancy at 10 µM [10] was 50 to 75%. For the same molecule, the “cell viability by LDH assay” value [11] was “No decrease in cell viability”, the “phosphorylation of Ser129 of AKT in mouse lung” value [12] was “no statistically significant reduction” and the plasma stability [13] was “stable in plasma”. It also gave a receptor occupancy at 10 µM [14] of 50 to 75% and a receptor occupancy at 10 µM [15] of 50 to 75%.
In the case of `CN[C@H]1CCCN(c2ccc(Nc3cc(NC4CC4)n4ncc(C#N)c4n3)cc2-n2cnnc2)C1` [Compound 69, (S)-7-(Cyclopropylamino)-5-((4-(3-(methylamino)piperidin-1-yl)-3-(4H-1,2,4-triazol-4-yl)phenyl)amino)pyrazolo[1,5-a]pyrimidine-3-carbonitrile], the “fold decrease in MHV potency” value ([16]; relative to 68) is reported as 3 fold.
Molecule `O=c1nc(NO)ccn1[C@@H]1O[C@H](CO)[C@@H](O)[C@H]1O` [EIDD-1931, reference compound] has an IC50 ([16]; read-out: MHV IC50, positive control of the assay) of 1200 nM.
